Results from patent publication US11708391B2, “Rapaglutins, novel inhibitors of GLUT and use thereof” (The Johns Hopkins University, priority 2016, dated 2023).
Entries after “also recorded” stand apart in the source; their conditions may differ. Like-named read-outs stand apart in the source and are kept apart here.

Key:
ERK, AKT or JNK = experiment: Western blot, phosphorylation of ERK, AKT or JNK; format: cell-based
Source text: Whether A18 and E11 treatment affect key cell growth signaling proteins was examined next. […] But it has no effects on the phosphorylation of ERK, AKT or JNK (FIG. 7). As previously reported, AMPK is likely to act as the key link between the ATP reduction and the subsequent cancer cell inhibition. (FIGS. 7 and 23-25). Based on the data reported here, the working model for A18 and E11 was proposed as outlined in FIG. 8. […] These led to upregulation of phosphorylation of AMPK and downregulation of phosphorylation of S6K. […] (FIG. 8)

A549 lung cancer cells = experiment: alamar blue cell viability assay, A549; format: cell-based, human
Source text: FIG. 9. Heat map of the screening results. Scale: 0 (red), complete inhibition; 1 (green), no inhibition. Screening of the rapafucin library for toxicity hits against A549 lung cancer cells using alamar blue assay.
A 45,000 compound and 3000 pool rapafucin library were screened using the alamar blue cell viability assay with the human non-small cell lung cancer (NSCLC) cell line A549. […] Several potent rapafucin hits were discovered to inhibit cell proliferation of A549. […] Each was resynthesized on preparative scale, purified by silica gel chromatography, followed by HPLC purification, and subjected to a series of detailed structure characterization (schemes I and II; FIGS. 10-14).
Dose-dependent inhibition of cell proliferation by A18 and E11 was next evaluated in several other human cancer cell lines, including breast cancer HCC1954, pancreatic cancer PANC10.05, leukemia Jurkat T and colon cancer RKO (FIGS. 1b and 1c). […] (FIGS. 1 and 9; Table 3)

DLD-1 wild type = experiment: alamar blue cell viability assay, DLD-1 wild type; format: cell-based
Source text: (§1) FIGS. 19A-19C. E11 is a specific inhibitor of Glut1. (a)(b) Inhibition of cell proliferation in A549, DLD-1 wild type and Glut1 knock out cells by A18 and E11. (c) Potency of A18 and E11 against the alamar blue assay in A549, DLD-1 wild type and Glut1 knock out cells.
(§2) Up to now, at least 14 different isoforms of GLUTs have been identified in human cells. It was then asked whether A18 and E11 are specific inhibitors of GLUT1. To answer this question, colon cancer DLD-1 wild type and GLUT1 gene knock out cell lines were chosen as a cell model (FIG. 4a). […] GLUTs that are most relevant to cancer are Glut1 and Glut3. To obtain additional evidence, Glut1 and Glut3 in HEK 293T cells were overexpressed and an alamar blue cell viability assay was performed again. […] (see FIGS. 4, 19, 20, 26; Table 4).

SRE = SRE reporter gene assay; format: cell-based
Source text: (§3) FIGS. 28A-28D. (a) A18 and E11 inhibit NFAT and A18, but not E11, stimulates SRE reporter gene signal. (b) E11 inhibits NFAT, NF-κB and IL2, but not MEF-2 or AP-1 pathways, in Jurkat T cells. (c) Glucose inhibitor stimulates SRE reporter gene signal.

[1] = tested on: DLD-1 GLUT1 gene knock out cells; experiment: alamar blue cell viability assay, DLD-1 GLUT1 knock out; format: cell-based
Source text: as §1, §2

[2] = tested on: DLD-1 GLUT1 gene knock out cells; experiment: 2-deoxy-D-[3H] glucose uptake in DLD-1 GLUT1 knock out cells; format: cell-based
Source text: FIGS. 4A-4B. E11 is a specific inhibitor of Glut1. (a) Glut1 protein levels of DLD-1 wild type and knock out cells analyzed by western blotting. (b) Inhibition of 2-deoxy-D-[3H] glucose uptake in DLD-1 wild type and knock out cells by E11 or A18.
as §2

NFAT = NFAT reporter gene assay; format: cell-based
Source text: as §3
Both A18 and E11 have shown immunosuppressive activity, blocking NFAT reporter gene activation and IL-2 production (see e.g., FIG. 28). As such, they can be used as immunosuppressive agents that have applications in treating organ transplantation rejection and all kinds of autoimmune diseases. […]

HEK 293T cells [3] = tested on: HEK 293T cells
NF-κB = NF-κB pathway reporter in Jurkat T cells; format: cell-based
Source text: as §3

HEK 293T cells [4] = experiment: Western blot for DNA damage and apoptosis markers in HEK 293T; conditions: 72 h (DNA damage), 24 h (apoptosis)

Compound	phosphorylation of ERK, AKT or JNK (ERK, AKT or JNK)	IC50 (A549 lung cancer cells; Homo sapiens)	inhibition of cell proliferation, alamar blue (DLD-1 wild type)	SRE reporter gene signal (SRE)	inhibition of cell proliferation, alamar blue [1]	inhibition of 2-deoxy-D-glucose uptake [2]	NFAT reporter gene signal (NFAT)	DNA damage or apoptosis (phosphor-p53, active caspase 3, 7 and 9) (HEK 293T cells [3])	IC50 (A549 lung cancer cells)	NF-κB pathway (NF-κB)	DNA damage or apoptosis (phosphor-p53, active caspase 3, 7 and 9) (HEK 293T cells [4])
CC[C@@H](C)[C@H]1C(=O)NCC(=O)N(C)CC/C=C/C(=O)OCC(C)(C)C(=O)C(=O)N2CCCC[C@H]2C(=O)O[C@H](CCc2ccc(OC)c(OC)c2)c2cccc(c2)NC(=O)CCC(=O)N(C)[C@@H](CC(C)C)C(=O)N[C@H](Cc2ccccc2)C(=O)N1C [A18]	no effects	189 nM	strongly inhibited	stimulates	strongly inhibited	strongly inhibited	inhibit; also recorded: blocking	do not induce DNA damage or apoptosis	–	–	–
Gly-^MSerBu-Nal-^MAla [E11]	no effects	–	kept inhibitory activity	–	didn't show any inhibition	didn't show any inhibition	inhibit; also recorded: blocking	–	367 nM	inhibits	do not induce DNA damage or apoptosis
